Source: PubChem BioAssay AID328 (DTP/NCI, 2004)
Values joined by “and” are separate entries in the source; they are usually repeats but may differ in a detail not shown here. Equal values may be shown once. Inconclusive results and toxic doses are left out.

System: BDF1 mice, P388 leukemia ip, median survival T/C
Assay: NCI In Vivo Anticancer Drug Screen. Data for tumor model P388 Leukemia (intraperitoneal) in B6D2F1 (BDF1) mice
Details: endpoint: median survival time, higher = longer survival
Procedure, shortened: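 Antitumour effect was judged in vivo: survival in drug-treated mice, normalised to that of vehicle-dosed controls, gives the reported T/C.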

[1] = dose: 10.0 mg/kg/injection, schedule: Q01DX009 (ip), vehicle: saline
[2] = dose: 100.0 mg/kg/injection, schedule: Q01DX009 (ip), vehicle: saline with Tween-80
[3] = dose: 100.0 mg/kg/injection, schedule: Q04DX003 (ip), vehicle: saline with Tween-80
[4] = dose: 200.0 mg/kg/injection, schedule: Q01DX009 (ip), vehicle: saline with Tween-80
[5] = dose: 200.0 mg/kg/injection, schedule: Q04DX003 (ip), vehicle: saline with Tween-80
[6] = dose: 400.0 mg/kg/injection, schedule: Q01DX009 (ip), vehicle: saline with Tween-80
[7] = dose: 400.0 mg/kg/injection, schedule: Q04DX003 (ip), vehicle: saline with Tween-80
[8] = dose: 50.0 mg/kg/injection, schedule: Q01DX009 (ip), vehicle: saline with Tween-80
[9] = dose: 50.0 mg/kg/injection, schedule: Q04DX003 (ip), vehicle: saline with Tween-80

In the case of Cn1c(CCCC(=O)O)nc2cc(N(CCCl)CCCl)ccc21, the T/C (dose: 1.8 mg/kg/injection, schedule: Q04DX003 (ip), vehicle: saline) was 116 % of control, the T/C (dose: 2.5 mg/kg/injection, schedule: Q01DX009 (ip), vehicle: saline) was 154 % of control and the T/C (dose: 4.3 mg/kg/injection, schedule: Q04DX003 (ip), vehicle: saline with Tween-80) was 175 % of control. For the same compound, the T/C (dose: 5.0 mg/kg/injection, schedule: Q01DX009 (ip), vehicle: saline) was 166 % of control, the T/C (dose: 6.5 mg/kg/injection, schedule: Q04DX003 (ip), vehicle: saline with Tween-80) was 185 % of control and the T/C (dose: 9.9 mg/kg/injection, schedule: Q04DX003 (ip), vehicle: saline with Tween-80) was 180 % of control. The T/C [1] was 200 % of control, the T/C (dose: 15.0 mg/kg/injection, schedule: Q04DX003 (ip), vehicle: saline with Tween-80) was 200 % of control and the T/C (dose: 22.5 mg/kg/injection, schedule: Q04DX003 (ip), vehicle: saline with Tween-80) was 180 % of control.

For O=C1c2ccccc2CC1(Br)C(Br)c1ccccc1 (stereo unspecified), the T/C [2] was 115 % of control, the T/C [3] was 104 % of control and the T/C [4] was 108 % of control. The T/C [5] was 104 % of control, the T/C [6] was 115 % of control and the T/C [7] was 103 % of control.

CCCCCCCCSC(=S)SCC(=O)O was tested, and the T/C [8] was 100 % of control and the T/C [2] was 100 % of control.

In the case of Brc1ccc2c(c1)-c1ccccc1C1=NCCN12, the T/C (dose: 2.5 mg/kg/injection, schedule: Q01DX009 (ip), vehicle: Klucel (hydroxypropylcellulose) (HPC)) was 95 % of control, the T/C (dose: 5.0 mg/kg/injection, schedule: Q01DX009 (ip), vehicle: Klucel (hydroxypropylcellulose) (HPC)) was 104 % of control and the T/C (dose: 10.0 mg/kg/injection, schedule: Q01DX009 (ip), vehicle: Klucel (hydroxypropylcellulose) (HPC)) was 100 % of control. The T/C (dose: 20.0 mg/kg/injection, schedule: Q01DX009 (ip), vehicle: Klucel (hydroxypropylcellulose) (HPC)) was 95 % of control.

With CNCCNC the T/C (dose: 50.0 mg/kg/injection, schedule: Q01DX005 (ip), vehicle: saline) was 100 % of control, the T/C (dose: 100.0 mg/kg/injection, schedule: Q01DX005 (ip), vehicle: saline) was 98 % of control and the T/C (dose: 200.0 mg/kg/injection, schedule: Q01DX005 (ip), vehicle: saline) was 95 % of control.

In the case of OCCOc1cccc(OCCO)c1, the T/C [3] was 100 % of control, the T/C [5] was 100 % of control and the T/C [7] was 104 % of control.

For OCC(O)C(O)C(O)CO (stereo unspecified), the T/C (dose: 100.0 mg/kg/injection, schedule: Q01DX010 (ip), vehicle: saline) was 100 % of control and the T/C (dose: 400.0 mg/kg/injection, schedule: Q01DX010 (ip), vehicle: saline) was 100 % of control.

In the case of NC(CC(=O)O)c1nn[nH]n1 (stereo unspecified), the T/C [2] was 95 % of control, the T/C [4] was 95 % of control and the T/C [6] was 100 % of control.

O=c1[nH]cc(F)c(=O)n1C1OC(CO)C(O)C1O (stereo unspecified) was tested, and the T/C (dose: 0.75 mg/kg/injection, schedule: Q01DX009 (ip), vehicle: saline) was 169 % of control and 180 % of control, the T/C (dose: 1.5 mg/kg/injection, schedule: Q01DX009 (ip), vehicle: saline) was 162 % of control and 217 % of control and the T/C (dose: 3.0 mg/kg/injection, schedule: Q01DX009 (ip), vehicle: saline) was 230 % of control and 188 % of control. For the same compound, the T/C (dose: 6.0 mg/kg/injection, schedule: Q01DX009 (ip), vehicle: saline) was 100 % of control.

N=C(N)c1nn(C2OC(CO)C(O)C2O)c2ncnc(N)c12 (stereo unspecified) was tested, and the T/C [1] was 114 % of control and 117 % of control, the T/C (dose: 10.0 mg/kg/injection, schedule: Q04DX003 (ip), vehicle: saline) was 109 % of control and 118 % of control and the T/C (dose: 20.0 mg/kg/injection, schedule: Q01DX009 (ip), vehicle: saline) was 117 % of control and 124 % of control. The T/C (dose: 20.0 mg/kg/injection, schedule: Q04DX003 (ip), vehicle: saline) was 122 % of control, the T/C (dose: 40.0 mg/kg/injection, schedule: Q04DX003 (ip), vehicle: saline) was 104 % of control and the T/C (dose: 80.0 mg/kg/injection, schedule: Q04DX003 (ip), vehicle: saline) was 95 % of control.

In the case of CCCn1/c(=N\N=O)sc2ccccc21, the T/C (dose: 50.0 mg/kg/injection, schedule: Q04DX003 (ip), vehicle: saline sonified) was 100 % of control, the T/C (dose: 100.0 mg/kg/injection, schedule: Q04DX003 (ip), vehicle: saline sonified) was 100 % of control and the T/C (dose: 200.0 mg/kg/injection, schedule: Q04DX003 (ip), vehicle: saline sonified) was 95 % of control.

For Cc1n(Cc2ccccc2)c2c([n+]1C)C(=O)c1ccccc1C2=O, the T/C (dose: 0.5 mg/kg/injection, schedule: Q01DX010 (ip), vehicle: saline) was 100 % of control, the T/C (dose: 1.0 mg/kg/injection, schedule: Q01DX010 (ip), vehicle: saline) was 109 % of control and the T/C (dose: 2.0 mg/kg/injection, schedule: Q01DX010 (ip), vehicle: saline) was 113 % of control. The T/C (dose: 125.0 micrograms/kg/injection, schedule: Q01DX009 (ip), vehicle: Klucel (hydroxypropylcellulose) (HPC)) was 105 % of control, the T/C (dose: 250.0 micrograms/kg/injection, schedule: Q01DX009 (ip), vehicle: Klucel (hydroxypropylcellulose) (HPC)) was 100 % of control and the T/C (dose: 500.0 micrograms/kg/injection, schedule: Q01DX009 (ip), vehicle: Klucel (hydroxypropylcellulose) (HPC)) was 110 % of control. For the same compound, the T/C (dose: 1000.0 micrograms/kg/injection, schedule: Q01DX009 (ip), vehicle: Klucel (hydroxypropylcellulose) (HPC)) was 115 % of control and the T/C (dose: 2000.0 micrograms/kg/injection, schedule: Q01DX009 (ip), vehicle: Klucel (hydroxypropylcellulose) (HPC)) was 120 % of control.

For CC(=O)OC(C)(C)/C=C/C(=O)[C@](C)(O)[C@H]1[C@H](O)C[C@@]2(C)[C@@H]3CC=C4[C@@H](C=C(O)C(=O)C4(C)C)[C@]3(C)C(=O)C[C@]12C, the T/C (dose: 1.0 mg/kg/injection, schedule: Q01DX009 (ip), vehicle: saline) was 100 % of control and the T/C (dose: 2.0 mg/kg/injection, schedule: Q01DX009 (ip), vehicle: saline) was 110 % of control.

For CCN=C(N)N=C(N)N, the T/C (dose: 100.0 mg/kg/injection, schedule: Q01DX001 (ip), vehicle: saline) was 102 % of control.

CC(=O)[C@]1(O)Cc2c(O)c3c(c(O)c2[C@@H](OC2CC(N)C(O)C(C)O2)C1)C(=O)c1c(O)cccc1C3=O (stereo partly specified) was tested, and the T/C (dose: 0.32 mg/kg/injection, schedule: Q04DX003 (ip), vehicle: water) was 185 % of control, the T/C (dose: 0.39 mg/kg/injection, schedule: Q04DX003 (ip), vehicle: water) was 203 % of control and the T/C (dose: 0.54 mg/kg/injection, schedule: Q04DX003 (ip), vehicle: water) was 101 % of control. The T/C (dose: 0.9 mg/kg/injection, schedule: Q04DX003 (ip), vehicle: water) was 92 % of control and the T/C (dose: 1.08 mg/kg/injection, schedule: Q04DX003 (ip), vehicle: water) was 115 % of control.

For FC(F)(F)c1cccc(-c2nc3nc(Cl)c(Cl)nc3[nH]2)c1, the T/C (dose: 25.0 mg/kg/injection, schedule: Q01DX009 (ip), vehicle: saline with Tween-80) was 99 % of control, the T/C [8] was 94 % of control and the T/C [9] was 108 % of control. The T/C [2] was 103 % of control.

With CC12CCC3c4ccccc4CCC3(CO1)C2 (stereo unspecified) the T/C (dose: 100.0 mg/kg/injection, schedule: Q01DX009 (ip), vehicle: Klucel (hydroxypropylcellulose) (HPC)) was 100 % of control, the T/C (dose: 100.0 mg/kg/injection, schedule: Q04DX003 (ip), vehicle: Klucel (hydroxypropylcellulose) (HPC)) was 104 % of control and the T/C (dose: 200.0 mg/kg/injection, schedule: Q01DX009 (ip), vehicle: Klucel (hydroxypropylcellulose) (HPC)) was 100 % of control. For the same compound, the T/C (dose: 200.0 mg/kg/injection, schedule: Q04DX003 (ip), vehicle: Klucel (hydroxypropylcellulose) (HPC)) was 108 % of control, the T/C (dose: 400.0 mg/kg/injection, schedule: Q01DX009 (ip), vehicle: Klucel (hydroxypropylcellulose) (HPC)) was 100 % of control and the T/C (dose: 400.0 mg/kg/injection, schedule: Q04DX003 (ip), vehicle: Klucel (hydroxypropylcellulose) (HPC)) was 100 % of control.

S=c1nc[nH]c2c1ncn2C1CCCO1 (stereo unspecified) was tested, and the T/C [8] was 95 % of control and the T/C [2] was 118 % of control.

In the case of NC(=S)N/N=C/c1ccc2c(c1)OCO2, the T/C [9] was 95 % of control and the T/C [3] was 100 % of control.

In the case of NSc1ccc([N+](=O)[O-])cc1, the T/C (dose: 100.0 mg/kg/injection, schedule: Q01DX001 (ip), vehicle: other) was 109 % of control.
